Results from patent US12448366B2, “Solid forms of pralsetinib” (Rigel Pharmaceuticals, Inc., priority 2020, dated 2025).
Entries after “also recorded” stand apart in the source; their conditions may differ.

Assays:
Assay type in all cases: physicochemical
[1] = Competitive slurry experiments between free base solid forms
[2] = Cooling crystallization (Example 2C), XRPD; details: for XRPD Pattern (fast cool): crash cooling from 50° C. to 0° C.; for XRPD Pattern (slow cool): from 50° C. at 5° C. per hour
Procedure: Cooling crystallization was done in a range of solvent systems. Two cooling regimes were used: cooling from 50° C. at 5° C. per hour, and crash cooling from 50° C. to 0° C. In all experiments, solids were completely dissolved before cooling. […] Cooling in THF gave two low crystallinity solids, Solid form N (fast cooling), and solid form I (slow cooling).

[3] = Antisolvent crystallization (Example 2D), XRPD; details: for XRPD results of direct antisolvent experiments: direct addition; for XRPD results of reverse antisolvent experiments: reverse addition
Procedure: Antisolvent crystallization was done in various solvent systems. First, about 30 mg solid free base of Compound (I) characterized by XRPD Pattern C (solid form C) was dissolved in solvent. Then antisolvent crystallization was done either using the direct or reverse addition method. For direct addition, antisolvent was added dropwise to the solution until a slurry was formed. For reverse addition, solution was added all at once to the antisolvent. The volume of antisolvent used was 4 times the volume of solvent required to dissolve the solid. For example, if 0.15 mL solvent was required to dissolve the solid then the solution was added at once to […] antisolvent. Once solids were formed, the slurries were filtered and solids were recovered for XRPD analysis.

[4] = Short term slurries (Example 2A), XRPD; details: short term slurry, starting solids Pattern C
Procedure: Short term slurries were carried out at two temperature in 15 solvents during the initial screening. Starting solids were Pattern C. Most solids were Pattern C after slurrying. Solids converted to Pattern A in EtOH, IPA, acetone, and acetonitrile at both temperatures.
The upper phase was sticky and when filtered yielded a low amount of a solid form characterized by XRPD Pattern H.

[5] = Evaporative crystallization (Example 2B), XRPD; details: evaporative crystallization at 50° C., to be confirmed by other analytical methods
Procedure: Supernatant from some slurries was recovered for evaporative crystallization. The solutions were evaporated to dryness at 50° C. in atmospheric pressure and then placed at 50° C. under vacuum for 1.5 hours. […] It is possible that these solids were solvates with structures that collapsed to amorphous solids upon drying. Where two experiment numbers are indicated, evaporation was at different concentration.

[6] = Humidity exposure, 75% relative humidity at 40° C. for one week, XRPD; details: one week / 7 days, XRPD
[7] = Drying of free base solid forms (XRPD); details: 50° C., (under vacuum where stated)
[8] = Dynamic vapor sorption (DVS); details: for XRPD / form stability after DVS humidity cycling: XRPD before and after DVS
Procedure: Dynamic Vapor Sorption (DVS) was done using a DVS Intrinsic 1. The sample is loaded into a sample pan and suspended from a microbalance. A typical sample mass for DVS measurement is 25 mg. Nitrogen gas bubbled through distilled water provides the desired relative humidity. A typical measurement comprises the steps: • 1—Equilibrate at 50% RH • 2—50% to 2%. (50%, 40%, 30%, 20%, 10% and 2%) • a. Hold minimum of 5 mins and maximum of 60 minutes at each humidity. The pass criteria is less than 0.002% change • 3—2% to 95% (2%, 10%, 20%, 30%, 40%, 50%, 60%, 70%, 80%, 90%, 95%) • a. Hold minimum of 5 mins and maximum of 60 minutes at each humidity. The pass criteria is less than 0.002% change • 4—95% to 2% (95%, 80%, 70%, 60%, 50%, 40%, 30%, 20%, 10%, 2%) • a. Hold minimum of 5 mins and maximum of 60 minutes at each humidity. The pass criteria is less than 0.002% change • 5—2% to 50% (2%, 10%, 20%, 30%, 40%, 50%) • a. Hold minimum of 5 mins and maximum of 60 minutes at each humidity. The pass criteria is less than 0.002% change High Pressure Liquid Chromatography (HPLC)
Dynamic Vapor Sorption (DVS) was performed using a DVS Intrinsic 1. The samples (12-31 mg) was loaded into a sample pan, suspended from a microbalance and exposed to a humidified stream of nitrogen gas. The sample was held for a minimum of 5 min at each level and only progressed to the next humidity level if there was <0.002% change in weight between measurements (interval: 60 seconds) or 240 min had elapsed. The following program was used: • 1—Equilibration at 50% RH • 2—50% to 2%. (50%, 40%, 30%, 20%, 10% and 2%) • 3—2% to 95% (2%, 10%, 20%, 30%, 40%, 50%, 60%, 70%, 80%, 90%, 95%) • 4—95% to 2% (95%, 80%, 70%, 60%, 50%, 40%, 30%, 20%, 10%, 2%) • 5—2% to 50% (2%, 10%, 20%, 30%, 40%, 50%) High Performance Liquid Chromatography (HPLC)

[9] = Thermal treatment in DSC followed by XRPD (Example 2G); details: 150° C.
Text: Select solids were used for thermal treatment in DSC. Solids were heated to specified temperature and then cooled back to room temperature for analysis by XRPD.

[10] = cooling crystallization, ACN water (8:2 vol)
[11] = cooling crystallization, DMAc:ACN (2:8 vol)
[12] = cooling crystallization, DMAc:IPA (2:8 vol)
[13] = cooling crystallization, DMSO:ACN (2:8 vol)
[14] = cooling crystallization, DMSO:IPA (2:8 vol)
[15] = cooling crystallization, MeOH chloroform (1.88:1 vol), wet solid before drying
[16] = solvent DMAc, antisolvent cyclohexane
[17] = solvent DMAc, antisolvent water

SMILES: CO[C@]1(C(=O)N[C@@H](C)c2ccc(-n3cc(F)cn3)nc2)CC[C@H](c2nc(C)cc(Nc3cc(C)[nH]n3)n2)CC1 [Solid Form C, pralsetinib]
- competitive slurry in acetone and isopropanol [1]: converted to solid form A
- Competitive slurry MeOH: water (1:1 vol) at 23 and 50° C. ([1]; listed as Pattern C): C stable
- Competitive slurry isopropanol, MeOH:MtBE ([1]; listed as Pattern C): C converts to A
- XRPD Pattern (fast cool) ([2]; cooling crystallization, 1,4-dioxane): no solids (−20° C.)
- XRPD Pattern (slow cool) ([2]; cooling crystallization, 1,4-dioxane, wet solid before drying): Q (wet)
- XRPD Pattern (fast cool) ([2]; cooling crystallization, 1-propanol): no solids (−20° C.)
- XRPD Pattern (slow cool) ([2]; cooling crystallization, 1-propanol, wet solid before drying): A (wet)
- XRPD Pattern (fast cool) [2, 10]: no solids (−20° C.)
- XRPD Pattern (slow cool) [2, 10]: no solids (−20° C.)
- XRPD Pattern (fast cool) [2, 11]: no solids (−20° C.)
- XRPD Pattern (slow cool) [2, 11]: no solids (−20° C.)
- XRPD Pattern (fast cool) [2, 12]: no solids (−20° C.)
- XRPD Pattern (slow cool) [2, 12]: no solids (−20° C.)
- XRPD Pattern (fast cool) [2, 13]: no solids (−20° C.)
- XRPD Pattern (slow cool) [2, 13]: no solids (−20° C.)
- XRPD Pattern (fast cool) [2, 14]: no solids (−20° C.)
- XRPD Pattern (slow cool) [2, 14]: no solids (−20° C.)
- XRPD Pattern (fast cool) ([2]; cooling crystallization, EtOAc): no solids (−20° C.)
- XRPD Pattern (slow cool) ([2]; cooling crystallization, EtOAc): very few solids
- XRPD Pattern (fast cool) ([2]; cooling crystallization, EtOH): no solids (−20° C.)
- XRPD Pattern (slow cool) ([2]; cooling crystallization, EtOH): no solids (−20° C.)
- XRPD Pattern (fast cool) ([2]; cooling crystallization, IPA): no solids (−20° C.)
- XRPD Pattern (slow cool) ([2]; cooling crystallization, IPA): A (wet)
- XRPD Pattern (fast cool) ([2]; cooling crystallization, IPAc): no solids (−20° C.)
- XRPD Pattern (slow cool) ([2]; cooling crystallization, IPAc): no solids (−20° C.)
- XRPD Pattern (fast cool) [2, 15]: D (wet)
- XRPD Pattern (slow cool) [2, 15]: D (wet)
- XRPD Pattern (slow cool) ([2]; cooling crystallization, MeOH): no solids (−20° C.)
- XRPD Pattern (fast cool) ([2]; cooling crystallization, THF): N (wet)
- XRPD Pattern (slow cool) ([2]; cooling crystallization, THF, wet solid before drying): O + I (wet)
- XRPD Pattern (fast cool) ([2]; cooling crystallization, acetone): no solids (−20° C.)
- XRPD results of direct antisolvent experiments [3, 16]: phase sep.
- XRPD results of direct antisolvent experiments [3, 17]: C + some B (wet)
- XRPD results of direct antisolvent experiments ([3]; solvent THF, antisolvent water): oiling
- XRPD results of reverse antisolvent experiments [3, 16]: phase sep.
- XRPD results of reverse antisolvent experiments [3, 17]: C (wet)
- XRPD results of reverse antisolvent experiments ([3]; solvent MeOH, antisolvent water): C (wet)
- XRPD results of reverse antisolvent experiments ([3]; solvent THF, antisolvent heptane): am. (wet)
- XRPD results of reverse antisolvent experiments ([3]; solvent THF, antisolvent water): C (wet)
- XRPD Pattern ([4]; EtOH, 22-23° C., dried solids): A (dry)
- XRPD Pattern ([4]; EtOH, 22-23° C., wet solids): A (wet)
- XRPD Pattern ([4]; IPAc, 50° C.): A + C
- XRPD Pattern ([4]; chloroform, 22-23° C., dried solids): H (dry)
- XRPD Pattern ([4]; chloroform, 22-23° C., wet solids): H (wet)
- XRPD Pattern ([5]; DCM, solution 37 mg/mL solvent): amorphous*
- XRPD Pattern ([5]; chloroform, solution 70 mg/mL solvent): amorphous*
- stability on exposure to 75% relative humidity at 40° C. [6]: remained stable
- stability on exposure to 75% relative humidity at 40° C. ([6]; listed as Pattern C): remained unchanged
- behaviour upon drying at 50° C. [7]: converted to a dehydrate, Solid Form B
- behaviour upon drying at 50° C. ([7]; listed as Pattern C): pattern B
- behaviour upon drying at 50° C. ([7]; listed as solid form C): stable
- water gained during the dynamic vapor sorption measurements [8]: 1.44%
- hygroscopicity (words) ([8]; DVS): not as hygroscopic as pralsetinib free base in solid form A
- DVS Water Mass Change (wt. %) ([8]; Table 3E): 1.29-1.44 wt. %
- XRPD / form stability after DVS humidity cycling [8]: the same
- XRPD / form stability after DVS humidity cycling ([8]; listed as Solid form C): remained stable
- reversible mass change by DVS ([8]; between 2-95% relative humidity): about 1.4%
- total mass change observed by DVS ([8]; humidity range not given): 1.4 wt. %
- solid form after heating to 150° C. [9]: converted to Pattern B (anhydrous); also recorded: converted to solid form B
